The target in experiment [1] is human adenosine A2B receptor (Homo sapiens (Human), UniProt P29275). Nature of the experiment: Adenosine A2B Receptor Cyclic AMP GS Assay. In kind it is cell-based. The note with it: HEK-293 cells expressing human A2B receptor, agonist NECA 12 nM, cAMP accumulation; read-out: A2B_cAMP_EC50. Here is the method: Example B. Adenosine A2B Receptor Cyclic AMP GS Assay
Stably transfected HEK-293 cells expressing the human adenosine A2B receptor (Perkin Elmer) were maintained in MEM culture medium with 10% FBS and 100 μg/mL Geneticin (Life Technologies). 18 to 24 hours prior to assay, geneticin was removed from culture. The cisbio cAMP-GS Dynamic kit utilizing the FRET (Fluorescence Resonance Energy Transfer) technology was used to measure cAMP accumulation in the cells. Compounds of the present disclosure at an appropriate concentration were mixed with 10000 cells/well in white 96 well half area plates (Perkin Elmer) for 30 min at room temperature gently shaking. Agonist, NECA (R&D Technologies) at 12 nM was added to each well for 60 min at room temperature gently shaking. Detection reagents, d2-labeled cAMP (acceptor) and anti-cAMP cryptate (donor) were added to each well for 60 min at RT gently shaking. Plates were read on Pherastar (BMG Labtech), fluorescence ratio 665/620 was calculated and EC50 determination was performed by fitting the curve of percent of control versus the log of the compound concentration using GraphPad Prism.

The next experiment deals with Adenosine A2A receptor (Homo sapiens (Human), UniProt P29274). Nature of the experiment: A2A Tag-Lite HTRF assay. In kind it is binding. The note with it: Tag-Lite Adenosine A2A labeled cells, displacement of A2A Receptor Red antagonist fluorescent ligand 12.5 nM; read-out: A2A_Ki. The text has this: Example C. A2A Tag-Lite® HTRF Assay
The final concentration of DMSO was 1%.

The record followed here is patent publication US11168089B2, “Fused pyrimidine derivatives as A2A / A2B inhibitors” (Incyte Corporation, priority 2018, dated 2021).

Bounds are passed on as bounds.

Chain of human adenosine A2B receptor (P29275 whole entry): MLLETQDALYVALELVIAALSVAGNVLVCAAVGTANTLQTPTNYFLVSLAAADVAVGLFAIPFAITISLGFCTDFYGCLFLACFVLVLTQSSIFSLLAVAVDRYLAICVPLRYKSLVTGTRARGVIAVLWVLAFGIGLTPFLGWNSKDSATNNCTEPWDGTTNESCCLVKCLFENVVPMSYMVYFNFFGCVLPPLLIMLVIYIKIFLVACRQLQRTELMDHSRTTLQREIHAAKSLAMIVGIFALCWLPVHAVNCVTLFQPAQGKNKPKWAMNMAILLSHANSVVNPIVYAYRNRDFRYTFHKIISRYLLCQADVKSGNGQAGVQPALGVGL
Chain of Adenosine A2A receptor (P29274 whole entry): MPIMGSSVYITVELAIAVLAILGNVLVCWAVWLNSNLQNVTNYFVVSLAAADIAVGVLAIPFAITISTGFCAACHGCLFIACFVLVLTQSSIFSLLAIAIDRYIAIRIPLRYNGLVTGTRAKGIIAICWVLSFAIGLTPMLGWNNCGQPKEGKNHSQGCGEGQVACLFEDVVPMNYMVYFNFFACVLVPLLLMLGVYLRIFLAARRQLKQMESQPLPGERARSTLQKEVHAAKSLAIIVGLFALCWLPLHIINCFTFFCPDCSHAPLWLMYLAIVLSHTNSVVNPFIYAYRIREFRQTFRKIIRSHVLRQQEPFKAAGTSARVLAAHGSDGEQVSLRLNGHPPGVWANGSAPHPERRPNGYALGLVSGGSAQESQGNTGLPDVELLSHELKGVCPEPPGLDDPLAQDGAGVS

With `CN1CCC(NCc2cccc(F)c2C(O)c2nc3cc(-c4cccc(C#N)c4F)nc(N)n3n2)C1=O` (single isomer, unassigned) [Example 16, 3-(5-Amino-2-((2-fluoro-6-(((1-methyl-2-oxopyrrolidin-3-yl)amino)methyl)phenyl)(hydroxy)methyl)-[1,2,4]triazolo[1,5-c]pyrimidin-7-yl)-2-fluorobenzonitrile], in experiment [1], the EC50 was in the range of 10 to 100 nM. In addition, the Ki at Adenosine A2A receptor was < 10 nM.
Take `N#Cc1cccc(-c2cc3nc(C(O)c4ccccc4)nn3c(N)n2)c1` (stereo not shown) [Example 1, 3-(5-Amino-2-(hydroxy(phenyl)methyl)-[1,2,4]triazolo[1,5-c]pyrimidin-7-yl)benzonitrile]: the EC50 in experiment [1] was < 10 nM. The Ki at Adenosine A2A receptor is < 10 nM.
As to `N#Cc1cccc(-c2cc3nc(Cc4ccccc4)nn3c(N)n2)c1` [Example 2, 3-(5-Amino-2-benzyl-[1,2,4]triazolo[1,5-c]pyrimidin-7-yl)benzonitrile], the EC50 in experiment [1] is < 10 nM. Besides, at Adenosine A2A receptor, the Ki is < 10 nM.
For `N#Cc1cccc(-c2cc3nc(Cc4ccccn4)nn3c(N)n2)c1` [Example 3, 3-(5-Amino-2-(pyridin-2-ylmethyl)-[1,2,4]triazolo[1,5-c]pyrimidin-7-yl)benzonitrile], the EC50 in experiment [1] is < 10 nM. For the same molecule, the Ki at Adenosine A2A receptor is < 10 nM.
`N#Cc1cccc(-c2cc3nc(CC4CCCCC4)nn3c(N)n2)c1` [Example 4, 3-(5-Amino-2-(cyclohexylmethyl)-[1,2,4]triazolo[1,5-c]pyrimidin-7-yl)benzonitrile]: the EC50 in experiment [1] was in the range of 100 to 1000 nM. Also, the Ki on Adenosine A2A receptor is < 10 nM.
In the case of `Cn1cc(-c2cccc(Cc3nc4cc(-c5cccc(C#N)c5)nc(N)n4n3)c2)cn1` [Example 5, 3-(5-Amino-2-(3-(1-methyl-1H-pyrazol-4-yl)benzyl)-[1,2,4]triazolo[1,5-c]pyrimidin-7-yl)benzonitrile], the EC50 in experiment [1] is 100 to 1000 nM. Further, the Ki at Adenosine A2A receptor is < 10 nM.
For `N#Cc1cccc(-c2cc3nc(CN4CCCC4=O)nn3c(N)n2)c1` [Example 6, 3-(5-Amino-2-((2-oxopyrrolidin-1-yl)methyl)-[1,2,4]triazolo[1,5-c]pyrimidin-7-yl)benzonitrile], the EC50 in experiment [1] lay within 100 to 1000 nM. Also, the Ki at Adenosine A2A receptor is < 10 nM.
On the same counts, the results for `Cn1ccnc1Cc1nc2cc(-c3cccc(C#N)c3)nc(N)n2n1` [Example 7, 3-(5-Amino-2-((1-methyl-1H-imidazol-2-yl)methyl)-[1,2,4]triazolo[1,5-c]pyrimidin-7-yl)benzonitrile] are 10 to 100 nM and < 10 nM.
On the same counts, the results for `N#Cc1cccc(-c2cc3nc(C(N)c4ccccc4)nn3c(N)n2)c1` (stereo not shown) [Example 8, 3-(5-Amino-2-(amino(phenyl)methyl)-[1,2,4]triazolo[1,5-c]pyrimidin-7-yl)benzonitrile] are 100 to 1000 nM and < 10 nM.
As for `N#Cc1cccc(-c2nc(N)n3nc(Cc4ccccc4)nc3c2CO)c1` [Example 9, 3-(5-Amino-2-benzyl-8-(hydroxymethyl)-[1,2,4]triazolo[1,5-c]pyrimidin-7-yl)benzonitrile], the EC50 in experiment [1] fell in the range of 10 to 100 nM. The Ki on Adenosine A2A receptor was < 10 nM.
Take `N#Cc1cccc(-c2cc3nc(Nc4ccccc4)nn3c(N)n2)c1` [Example 10, 3-(5-Amino-2-(phenylamino)-[1,2,4]triazolo[1,5-c]pyrimidin-7-yl)benzonitrile]: the EC50 in experiment [1] is 100 to 1000 nM. Also, on Adenosine A2A receptor, the Ki was < 10 nM.
As to `N#Cc1cccc(-c2cc3nc(Cc4ccccc4)cn3c(N)n2)c1` [Example 11, 3-(5-Amino-2-benzylimidazo[1,2-c]pyrimidin-7-yl)benzonitrile], in experiment [1], the EC50 fell in the range of 10 to 100 nM. In addition, on Adenosine A2A receptor, the Ki is < 10 nM.
As for `CCNC(=O)c1nc2cc(-c3cccc(C#N)c3)nc(N)n2n1` [Example 12, 5-Amino-7-(3-cyanophenyl)-N-ethyl-[1,2,4]triazolo[1,5-c]pyrimidine-2-carboxamide], the EC50 in experiment [1] was > 1000 nM. Also, the Ki on Adenosine A2A receptor was < 10 nM.
Consider `Cc1c(C#N)cccc1-c1cc2nc(C(O)c3c(F)cccc3F)nn2c(N)n1` (stereo not shown) [Example 13, 3-(5-Amino-2-((2,6-difluorophenyl)(hydroxy)methyl)-[1,2,4]triazolo[1,5-c]pyrimidin-7-yl)-2-methylbenzonitrile], for which the EC50 in experiment [1] lay in the range of 10 to 100 nM. At Adenosine A2A receptor, the Ki was < 10 nM.
Regarding `N#Cc1cccc(-c2cc3nc(C(O)c4c(F)cccc4F)nn3c(N)n2)c1F` (stereo not shown) [Example 14, 3-(5-Amino-2-((2,6-difluorophenyl)(hydroxy)methyl)-[1,2,4]triazolo[1,5-c]pyrimidin-7-yl)-2-fluorobenzonitrile], in experiment [1], the EC50 is < 10 nM. Also, the Ki on Adenosine A2A receptor was < 10 nM.
Take `N#Cc1cccc(-c2nc(N)n3nc(C(O)c4c(F)cccc4F)nc3c2C#N)c1F` (stereo not shown) [Example 15, 5-Amino-7-(3-cyano-2-fluorophenyl)-2-((2,6-difluorophenyl)(hydroxy)methyl)-[1,2,4]triazolo[1,5-c]pyrimidine-8-carbonitrile]: the EC50 in experiment [1] is < 10 nM. For the same molecule, on Adenosine A2A receptor, the Ki was < 10 nM.
Consider `CN1CCC2(CN(Cc3cccc(F)c3C(O)c3nc4cc(-c5cccc(C#N)c5F)nc(N)n4n3)C2)C1=O` (stereo not shown) [Example 17, 3-(5-Amino-2-((2-fluoro-6-((6-methyl-5-oxo-2,6-diazaspiro[3.4]octan-2-yl)methyl)phenyl)(hydroxy)methyl)-[1,2,4]triazolo[1,5-c]pyrimidin-7-yl)-2-fluorobenzonitrile], for which, in experiment [1], the EC50 lay within 10 to 100 nM. Besides, the Ki at Adenosine A2A receptor was < 10 nM.
In the case of `CCN(Cc1cccc(F)c1C(O)c1nc2cc(-c3cccc(C#N)c3F)nc(N)n2n1)[C@H]1CCNC1=O` (stereo partly drawn) [Example 18, 3-(5-Amino-2-((2-((ethyl((S)-2-oxopyrrolidin-3-yl)amino)methyl)-6-fluorophenyl)(hydroxy)methyl)-[1,2,4]triazolo[1,5-c]pyrimidin-7-yl)-2-fluorobenzonitrile], in experiment [1], the EC50 is < 10 nM. Also, on Adenosine A2A receptor, the Ki is < 10 nM.
Regarding `N#Cc1cccc(-c2cc3nc(Cc4c(F)cccc4CNC4CCN(CC(=O)O)C4=O)nn3c(N)n2)c1F` (stereo not shown) [Example 19, 2-(3-((2-((5-Amino-7-(3-cyano-2-fluorophenyl)-[1,2,4]triazolo[1,5-c]pyrimidin-2-yl)methyl)-3-fluorobenzyl)amino)-2-oxopyrrolidin-1-yl)acetic acid], the EC50 in experiment [1] was 10 to 100 nM. For the same molecule, the Ki at Adenosine A2A receptor was < 10 nM.
On the same counts, the results for `N#Cc1cccc(-c2cc3nc(Cc4c(F)cccc4CN[C@@H]4CCOC4=O)nn3c(N)n2)c1F` [Example 20, (R)-3-(5-Amino-2-(2-fluoro-6-(((2-oxotetrahydrofuran-3-yl)amino)methyl)benzyl)-[1,2,4]triazolo[1,5-c]pyrimidin-7-yl)-2-fluorobenzonitrile] are < 10 nM and < 10 nM.
For the molecule `N#Cc1cccc(-c2cc3nc(Cc4c(F)cccc4CN[C@@H]4CCNC4=O)nn3c(N)n2)c1F` [Example 21, (R)-3-(5-Amino-2-(2-fluoro-6-(((2-oxopyrrolidin-3-yl)amino)methyl)benzyl)-[1,2,4]triazolo[1,5-c]pyrimidin-7-yl)-2-fluorobenzonitrile], the EC50 in experiment [1] is < 10 nM. Besides, the Ki on Adenosine A2A receptor was < 10 nM.
Take `N#Cc1cccc(-c2cc3nc(Cc4c(F)cccc4CN[C@H]4CCNC4=O)nn3c(N)n2)c1F` [Example 22, (S)-3-(5-Amino-2-(2-fluoro-6-(((2-oxopyrrolidin-3-yl)amino)methyl)benzyl)-[1,2,4]triazolo[1,5-c]pyrimidin-7-yl)-2-fluorobenzonitrile]: in experiment [1], the EC50 is < 10 nM. In addition, the Ki on Adenosine A2A receptor is < 10 nM.
For the molecule `N#Cc1cccc(-c2cc3nc(Cc4c(F)cccc4CN4CCC(c5nn[nH]n5)C4)nn3c(N)n2)c1F` (stereo not shown) [Example 23, 3-(2-(2-((3-(2H-Tetrazol-5-yl)pyrrolidin-1-yl)methyl)-6-fluorobenzyl)-5-amino-[1,2,4]triazolo[1,5-c]pyrimidin-7-yl)-2-fluorobenzonitrile], in experiment [1], the EC50 was in the range of 10 to 100 nM. At Adenosine A2A receptor, the Ki is < 10 nM.
On the same counts, the results for `CCN1CCC(NCc2cccc(F)c2Cc2nc3cc(-c4cccc(C#N)c4F)nc(N)n3n2)C1=O` (stereo not shown) [Example 24, 3-(5-Amino-2-(2-(((1-ethyl-2-oxopyrrolidin-3-yl)amino)methyl)-6-fluorobenzyl)-[1,2,4]triazolo[1,5-c]pyrimidin-7-yl)-2-fluorobenzonitrile] are 10 to 100 nM and < 10 nM.
On the same counts, the results for `CC(=O)N[C@H]1CCN(Cc2cccc(F)c2Cc2nc3cc(-c4cccc(C#N)c4F)nc(N)n3n2)C1` [Example 25, (S)—N-(1-(2-((5-Amino-7-(3-cyano-2-fluorophenyl)-[1,2,4]triazolo[1,5-c]pyrimidin-2-yl)methyl)-3-fluorobenzyl)pyrrolidin-3-yl)acetamide] are 10 to 100 nM and < 10 nM.
Regarding `N#Cc1cccc(-c2cc3nc(Cc4c(F)cccc4CN4CCC[C@H]4c4nn[nH]n4)nn3c(N)n2)c1F` [Example 26, (S)-3-(2-(2-((2-(2H-Tetrazol-5-yl)pyrrolidin-1-yl)methyl)-6-fluorobenzyl)-5-amino-[1,2,4]triazolo[1,5-c]pyrimidin-7-yl)-2-fluorobenzonitrile], in experiment [1], the EC50 was < 10 nM. At Adenosine A2A receptor, the Ki is < 10 nM.
